Laboratory results: PMC9950205, “Efficacy, safety, and pharmacokinetics of teduglutide in adult Japanese patients with short bowel syndrome and intestinal failure: two phase III studies with an extension” (Surgery Today, 2022)

Tested on: adult Japanese patients with SBS-IF
Test: Safety: treatment-emergent adverse events (TEAEs, TESAEs)
Type: in vivo
Source text: Safety analyses included the monitoring of adverse events (AEs), body weight, BMI, vital signs, 12-lead electrocardiogram (ECG), serum biochemistry, hematology, and presence of antibodies to teduglutide. AEs were coded using the Medical Dictionary for Regulatory Activities versions 17.1 (TED-C14-004) and 21.0 (SHP633-306 and SHP633-307). Specifically, AEs were treatment-emergent AEs (TEAEs), defined as any unfavorable and unintended sign (including any abnormal laboratory finding), symptom, or disease that occurred during treatment with teduglutide, whether or not the event was considered to be related to the study drug by the clinical study investigator. AEs were also categorized as mild, moderate, or severe. […] AEs were considered related to treatment with teduglutide, or its administration, based on the investigator's medical judgment.

[1] = ≤ 24 weeks (SHP633-306 and TED-C14-004), 0.05 mg/kg/day

CC[C@H](C)[C@H](NC(=O)[C@H](Cc1ccccc1)NC(=O)[C@H](CC(=O)O)NC(=O)[C@H](CCCNC(=N)N)NC(=O)[C@H](C)NC(=O)[C@H](C)NC(=O)[C@H](CC(C)C)NC(=O)[C@H](CC(N)=O)NC(=O)[C@H](CC(=O)O)NC(=O)[C@H](CC(C)C)NC(=O)[C@@H](NC(=O)[C@@H](NC(=O)[C@H](CC(N)=O)NC(=O)[C@H](CCSC)NC(=O)[C@H](CCC(=O)O)NC(=O)[C@H](CC(=O)O)NC(=O)[C@H](CO)NC(=O)[C@H](Cc1ccccc1)NC(=O)[C@H](CO)NC(=O)CNC(=O)[C@H](CC(=O)O)NC(=O)CNC(=O)[C@@H](N)Cc1c[nH]cn1)[C@@H](C)O)[C@@H](C)CC)C(=O)N[C@@H](CC(N)=O)C(=O)N[C@@H](Cc1c[nH]c2ccccc12)C(=O)N[C@@H](CC(C)C)C(=O)N[C@H](C(=O)N[C@@H](CCC(N)=O)C(=O)N[C@H](C(=O)N[C@@H](CCCCN)C(=O)N[C@H](C(=O)N[C@H](C(=O)N[C@@H](CC(=O)O)C(=O)O)[C@@H](C)O)[C@@H](C)CC)[C@@H](C)O)[C@@H](C)CC [teduglutide]
Immune system disorders: Events (Total, 0.05 mg/kg/day): 2 n
Immune system disorders: Patients (Total, 0.05 mg/kg/day): 2 (11.1) n (%)
Infections and infestations: Events (Total, 0.05 mg/kg/day): 81 n
Infections and infestations: Patients (Total, 0.05 mg/kg/day): 12 (66.7) n (%)
Influenza: Events (Total, 0.05 mg/kg/day): 21 n
Injection site reaction: Events (Total, 0.05 mg/kg/day): 4 n
Injection site reaction: Patients (Total, 0.05 mg/kg/day): 4 (22.2) n (%)
Injury, poisoning, and procedural complications: Events (Total, 0.05 mg/kg/day): 6 n
Injury, poisoning, and procedural complications: Patients (Total, 0.05 mg/kg/day): 5 (27.8) n (%)
Insomnia: Events (Total, 0.05 mg/kg/day): 2 n
Insomnia: Patients (Total, 0.05 mg/kg/day): 2 (11.1) n (%)
Investigations: Events (Total, 0.05 mg/kg/day): 14 n
Investigations: Patients (Total, 0.05 mg/kg/day): 7 (38.9) n (%)
Metabolism and nutrition disorders: Events (Total, 0.05 mg/kg/day): 13 n
Metabolism and nutrition disorders: Patients (Total, 0.05 mg/kg/day): 7 (38.9) n (%)
Musculoskeletal and connective tissue disorders: Events (Total, 0.05 mg/kg/day): 12 n
Musculoskeletal and connective tissue disorders: Patients (Total, 0.05 mg/kg/day): 8 (44.4) n (%)
Nasopharyngitis: Events (Total, 0.05 mg/kg/day): 21 n
Nasopharyngitis: Patients (Total, 0.05 mg/kg/day): 7 (38.9) n (%)
Nausea: Events (Total, 0.05 mg/kg/day): 8 n
Nausea: Patients (Total, 0.05 mg/kg/day): 4 (22.2) n (%)
Nervous system disorders: Events (Total, 0.05 mg/kg/day): 26 n
Nervous system disorders: Patients (Total, 0.05 mg/kg/day): 8 (44.4) n (%)
Oral herpes: Events (Total, 0.05 mg/kg/day): 2 n
Oral herpes: Patients (Total, 0.05 mg/kg/day): 2 (11.1) n (%)
Oropharyngeal pain: Events (Total, 0.05 mg/kg/day): 4 n
Oropharyngeal pain: Patients (Total, 0.05 mg/kg/day): 4 (22.2) n (%)
Pruritus: Events (Total, 0.05 mg/kg/day): 2 n
Pruritus: Patients (Total, 0.05 mg/kg/day): 2 (11.1) n (%)
Psychiatric disorders: Events (Total, 0.05 mg/kg/day): 4 n
Psychiatric disorders: Patients (Total, 0.05 mg/kg/day): 3 (16.7) n (%)
Pyrexia: Events (Total, 0.05 mg/kg/day): 11 n
Pyrexia: Patients (Total, 0.05 mg/kg/day): 8 (44.4) n (%)
Renal and urinary disorders: Events (Total, 0.05 mg/kg/day): 6 n
Renal and urinary disorders: Patients (Total, 0.05 mg/kg/day): 5 (27.8) n (%)
Respiratory, thoracic, and mediastinal disorders: Events (Total, 0.05 mg/kg/day): 13 n
Respiratory, thoracic, and mediastinal disorders: Patients (Total, 0.05 mg/kg/day): 7 (38.9) n (%)
Skin and subcutaneous tissue disorders: Events (Total, 0.05 mg/kg/day): 18 n
Skin and subcutaneous tissue disorders: Patients (Total, 0.05 mg/kg/day): 9 (50.0) n (%)
Somnolence: Events (Total, 0.05 mg/kg/day): 3 n
Somnolence: Patients (Total, 0.05 mg/kg/day): 3 (16.7) n (%)
Stomatitis: Events (Total, 0.05 mg/kg/day): 4 n
Stomatitis: Patients (Total, 0.05 mg/kg/day): 4 (22.2) n (%)
Upper respiratory tract inflammation: Events (Total, 0.05 mg/kg/day): 3 n
Upper respiratory tract inflammation: Patients (Total, 0.05 mg/kg/day): 2 (11.1) n (%)
Vascular disorders: Events (Total, 0.05 mg/kg/day): 6 n
Vascular disorders: Patients (Total, 0.05 mg/kg/day): 4 (22.2) n (%)
Vascular pain: Events (Total, 0.05 mg/kg/day): 3 n
Vascular pain: Patients (Total, 0.05 mg/kg/day): 2 (11.1) n (%)
Vomiting: Events (Total, 0.05 mg/kg/day): 3 n
Vomiting: Patients (Total, 0.05 mg/kg/day): 3 (16.7) n (%)
Severity of the majority of all TEAEs (all studies): mild or moderate
Changes in clinical laboratory measures, vital signs, body weight, BMI, or ECG findings (during any of the studies): no clinically meaningful changes
AEs related to growth of pre-existing polyps of the colon or gastrointestinal cancers (during the studies): no AEs
Abdominal distension: Events [1]: 4 n
Abdominal distension: Patients [1]: 4 (22.2) n (%)
Abdominal pain: Events [1]: 5 n
Abdominal pain: Patients [1]: 5 (27.8) n (%)
Anal abscess: Events [1]: 0 n
Anal abscess: Patients [1]: 0 n (%)
Anemia: Events [1]: 2 n
Anemia: Patients [1]: 2 (11.1) n (%)
Any TEAE: Events [1]: 121 n
Any TEAE: Patients [1]: 17 (94.4) n (%)
Arthralgia: Events [1]: 0 n
Arthralgia: Patients [1]: 0 n (%)
Back pain: Events [1]: 1 n
Back pain: Patients [1]: 1 (5.6) n (%)
Blood and lymphatic system disorders: Events [1]: 4 n
Blood and lymphatic system disorders: Patients [1]: 3 (16.7) n (%)
Catheter site infection: Events [1]: 1 n
Catheter site infection: Patients [1]: 1 (5.6) n (%)
Catheter site pain: Events [1]: 1 n
Catheter site pain: Patients [1]: 1 (5.6) n (%)
Dehydration: Events [1]: 2 n
Dehydration: Patients [1]: 2 (11.1) n (%)
Dermatitis contact: Events [1]: 0 n
Dermatitis contact: Patients [1]: 0 n (%)
Device occlusion (central venous catheter for PS): Events [1]: 3 n
Device occlusion (central venous catheter for PS): Patients [1]: 2 (11.1) n (%)
